We go through 2 compounds from patent publication US5891454A, “Anti-cancer drug and special tumor necrotizing agent” (Wu; Alexander, priority 1997, dated 1999).

“And” between values parts separate entries of the source, which are not always exact repeats. Identical values can stand only once.

For data set [1], the system named is mouse transplanted liver tumor. The experiment in a line: Anti-tumor effect on mouse transplanted liver tumor (I.M.). It counts as in vivo. To be noted: CTX 18.0 mg/kg/d x10. An excerpt:
(§1) A solvent blank (i.e., the specifically designed solution illustrated in Table 1), a saline blank as a […] control are used as controls for the in vivo tests. As per the Drug Administration Law of the People's Republic of China, and the rules governing observation of the pharmaco-dynamic study of the therapy action, the tumors were surgically removed from tumor infected mice and were homogenized to form suspensions followed by filtration to make a suspension solution at 1×10^6 -10^7 cell/ml. The suspension was injected (i.e., 0.2 ml per mice) into the test mice for tumor growth until the transplanted tumor cells were established and grew up to a size of 0.5×0.5 cm. […] At the end of the in vivo tests, several parameters such as mouse body weight, average tumor weight and percentage of tumor inhibition, are determined.
(§2) % inhibition rate=(average tumor weight of the solvent group or
(§3) tumor rate of the solvent group

Another data set has as its system mouse S-180 sarcoma. In words: Anti-tumor effect on mouse transplanted sarcoma S-180 (I.M.). It counts as in vivo. As to conditions: CTX 18.0 mg/kg/d x10.
Text: as §1, §2, §3

The next data set can be described thus: Solubility in water. It counts as physicochemical. To be noted: water or a water-based solution.
A further data set concerns skin fungal diseases. As to conditions: 7-8% solution by weight with propylene glycol; cited from earlier work.
Setting [2] is: P <0.01 vs saline control, three experiments.

Take `O=P1(N(CCCl)CCCl)NCCCO1` (centres unmarked) [CTX]: the Anti-tumor inhibit rate is 40.7% and 46.2% and 60.0% in data set [1] (setting [2]); 51.6% and 53.3% and 52.5% in the data set with mouse S-180 sarcoma (setting [2]). Further, the Body weight final in data set [1] (outset 19.9, 20.3, 20.9 in three experiments, in g (unit assumed)) is 27.9 and 28.5; in the data set on mouse S-180 sarcoma (outset 22.4, 22.6, 19.3 in three experiments, in g (unit assumed)), 30.9 and 26.4. In addition, the “Ave. weight of tumor (x + SD)” value in data set [1] (three experiments) is 1.81 ± 0.22 g and 1.57 ± 0.63 g and 0.94 ± 0.41 g. The “Ave. weight of tumor (x ± SD)” value in the data set with mouse S-180 sarcoma (three experiments) is 1.37 ± 0.47 g and 1.29 ± 0.43 g and 1.14 ± 0.28 g.

In the case of `Cc1ccc(S(N)(=O)=O)cc1` [para-toluene sulfonamide], in “Solubility in water”, the dissolution in water result was “not readily dissolved in water or in a water-based solution”. Further, in the data set with skin fungal diseases, the topical anti-fungal activity result is “highly effective”.
